According to article PMC7162861, “Synthesis, cytotoxicity, pharmacokinetic profile, binding with DNA and BSA of new imidazo[1,2-a]pyrazine-benzo[d]imidazol-5-yl hybrids” (Scientific Reports, 2020):

Experiments:
CCRF-CEM = experiment: NCI cytotoxicity screen, Leukemia panel; format: cell-based; settings: Homo sapiens, single dose 10 µM, negative = lethal, read-out: Percent growth inhibition
Procedure: (§1) Cytotoxicity was performed at National Cancer Institute (NCI), Bethesda, USA as per their protocols.

HL-60(TB) = experiment: NCI cytotoxicity screen, Leukemia panel; format: cell-based; settings: Homo sapiens, HL-60, HL-60(TB); single dose 10 µM; negative = lethal; read-out: Percent growth inhibition
Procedure: as §1

K-562 = experiment: NCI cytotoxicity screen, Leukemia panel; format: cell-based; settings: Homo sapiens, K562; K-562; single dose 10 µM; negative = lethal; read-out: Percent growth inhibition
Procedure: as §1

MOLT-4 = experiment: NCI cytotoxicity screen, Leukemia panel; format: cell-based; settings: Homo sapiens, MOLT-4, MOLT-4; single dose 10 µM; negative = lethal; read-out: Percent growth inhibition
Procedure: as §1

RPMI-8226 = experiment: NCI cytotoxicity screen, Leukemia panel; format: cell-based; settings: Homo sapiens; RPMI-8226; single dose 10 µM; negative = lethal; read-out: Percent growth inhibition
Procedure: as §1

SR = experiment: NCI cytotoxicity screen, Leukemia panel; format: cell-based; settings: Homo sapiens, single dose 10 µM, negative = lethal, read-out: Percent growth inhibition
Procedure: as §1

COLO 205 = experiment: NCI cytotoxicity screen, Colon Cancer panel; format: cell-based; settings: Homo sapiens, single dose 10 µM, negative = lethal, read-out: Percent growth inhibition
Procedure: as §1

HCT-116 = experiment: NCI cytotoxicity screen, Colon Cancer panel; format: cell-based; settings: Homo sapiens, single dose 10 µM, negative = lethal, read-out: Percent growth inhibition
Procedure: as §1

HCT-15 = experiment: NCI cytotoxicity screen, Colon Cancer panel; format: cell-based; settings: Homo sapiens, single dose 10 µM, negative = lethal, read-out: Percent growth inhibition
Procedure: as §1

HT29 = experiment: NCI cytotoxicity screen, Colon Cancer panel; format: cell-based; settings: Homo sapiens, HT-29; HT29; single dose 10 µM; negative = lethal; read-out: Percent growth inhibition
Procedure: as §1

HCC-2998 = experiment: NCI cytotoxicity screen, Colon Cancer panel; format: cell-based, human; settings: Homo sapiens; HCC-2998; single dose 10 µM; negative = lethal; read-out: Percent growth inhibition
Procedure: as §1

KM12 = experiment: NCI cytotoxicity screen, Colon Cancer panel; format: cell-based, human; settings: Homo sapiens, single dose 10 µM, negative = lethal, read-out: Percent growth inhibition
Procedure: as §1

SW-620 = experiment: NCI cytotoxicity screen, Colon Cancer panel; format: cell-based, human; settings: Homo sapiens, single dose 10 µM, negative = lethal, read-out: Percent growth inhibition
Procedure: as §1

SF-268 = experiment: NCI cytotoxicity screen, CNS Cancer panel; format: cell-based; settings: Homo sapiens, single dose 10 µM, negative = lethal, read-out: Percent growth inhibition
Procedure: as §1

SF-295 = experiment: NCI cytotoxicity screen, CNS Cancer panel; format: cell-based; settings: Homo sapiens, single dose 10 µM, negative = lethal, read-out: Percent growth inhibition
Procedure: as §1

SF-539 = experiment: NCI cytotoxicity screen, CNS Cancer panel; format: cell-based; settings: Homo sapiens, single dose 10 µM, negative = lethal, read-out: Percent growth inhibition
Procedure: as §1

SNB-19 = experiment: NCI cytotoxicity screen, CNS Cancer panel; format: cell-based; settings: Homo sapiens; SNB-19; single dose 10 µM; negative = lethal; read-out: Percent growth inhibition
Procedure: as §1

SNB-75 = experiment: NCI cytotoxicity screen, CNS Cancer panel; format: cell-based; settings: Homo sapiens, single dose 10 µM, negative = lethal, read-out: Percent growth inhibition
Procedure: as §1

U251 = experiment: NCI cytotoxicity screen, CNS Cancer panel; format: cell-based; settings: Homo sapiens, U-251; U251; single dose 10 µM; negative = lethal; read-out: Percent growth inhibition
Procedure: as §1

LOX IMVI = experiment: NCI cytotoxicity screen, Melanoma panel; format: cell-based, human; settings: Homo sapiens, single dose 10 µM, negative = lethal, read-out: Percent growth inhibition
Procedure: as §1

M14 = experiment: NCI cytotoxicity screen, Melanoma panel; format: cell-based, human; settings: Homo sapiens, single dose 10 µM, negative = lethal, read-out: Percent growth inhibition
Procedure: as §1

UACC-62 = experiment: NCI cytotoxicity screen, Melanoma panel; format: cell-based, human; settings: Homo sapiens, single dose 10 µM, negative = lethal, read-out: Percent growth inhibition
Procedure: as §1

MALME-3M = experiment: NCI cytotoxicity screen, Melanoma panel; format: cell-based; settings: Homo sapiens; MALME-3M; single dose 10 µM; negative = lethal; read-out: Percent growth inhibition
Procedure: as §1

MDA-MB-435 = experiment: NCI cytotoxicity screen, Melanoma panel; format: cell-based; settings: Homo sapiens, MDA-MB-435, read-out: Percent growth inhibition
Procedure: as §1

SK-MEL-28 = experiment: NCI cytotoxicity screen, Melanoma panel; format: cell-based; settings: Homo sapiens, single dose 10 µM, negative = lethal, read-out: Percent growth inhibition
Procedure: as §1

SK-MEL-2 = experiment: NCI cytotoxicity screen, Melanoma panel; format: cell-based; settings: Homo sapiens, single dose 10 µM, negative = lethal, read-out: Percent growth inhibition
Procedure: as §1

SK-MEL-5 = experiment: NCI cytotoxicity screen, Melanoma panel; format: cell-based; settings: Homo sapiens, single dose 10 µM, negative = lethal, read-out: Percent growth inhibition
Procedure: as §1

UACC-257 = experiment: NCI cytotoxicity screen, Melanoma panel; format: cell-based; settings: Homo sapiens, single dose 10 µM, negative = lethal, read-out: Percent growth inhibition
Procedure: as §1

IGROV1 = experiment: NCI cytotoxicity screen, Ovarian Cancer panel; format: cell-based; settings: Homo sapiens, IGROV-1, single dose 10 µM, negative = lethal, read-out: Percent growth inhibition
Procedure: as §1

NCI/ADR-RES = experiment: NCI cytotoxicity screen, Ovarian Cancer panel; format: cell-based; settings: Homo sapiens, single dose 10 µM, negative = lethal, read-out: Percent growth inhibition
Procedure: as §1

OVCAR-4 = experiment: NCI cytotoxicity screen, Ovarian Cancer panel; format: cell-based; settings: Homo sapiens; OVCAR-4; single dose 10 µM; negative = lethal; read-out: Percent growth inhibition
Procedure: as §1

OVCAR-5 = experiment: NCI cytotoxicity screen, Ovarian Cancer panel; format: cell-based; settings: Homo sapiens, single dose 10 µM, negative = lethal, read-out: Percent growth inhibition
Procedure: as §1

OVCAR-8 = experiment: NCI cytotoxicity screen, Ovarian Cancer panel; format: cell-based; settings: Homo sapiens, single dose 10 µM, negative = lethal, read-out: Percent growth inhibition
Procedure: as §1

SK-OV-3 = experiment: NCI cytotoxicity screen, Ovarian Cancer panel; format: cell-based; settings: Homo sapiens, single dose 10 µM, negative = lethal, read-out: Percent growth inhibition
Procedure: as §1

OVCAR-3 = experiment: NCI cytotoxicity screen, Ovarian Cancer panel; format: cell-based, human; settings: Homo sapiens; OVCAR-3; single dose 10 µM; negative = lethal; read-out: Percent growth inhibition
Procedure: as §1

786-0 = experiment: NCI cytotoxicity screen, Renal Cancer panel; format: cell-based, human; settings: Homo sapiens, single dose 10 µM, negative = lethal, read-out: Percent growth inhibition
Procedure: as §1

TK-10 = experiment: NCI cytotoxicity screen, Renal Cancer panel; format: cell-based, human; settings: Homo sapiens, single dose 10 µM, negative = lethal, read-out: Percent growth inhibition
Procedure: as §1

CAKI-1 = experiment: NCI cytotoxicity screen, Renal Cancer panel; format: cell-based; settings: Homo sapiens; CAKI-1; single dose 10 µM; negative = lethal; read-out: Percent growth inhibition
Procedure: as §1

SN12C = experiment: NCI cytotoxicity screen, Renal Cancer panel; format: cell-based; settings: Homo sapiens, single dose 10 µM, negative = lethal, read-out: Percent growth inhibition
Procedure: as §1

DU-145 = experiment: NCI cytotoxicity screen, Prostate Cancer panel; format: cell-based, human; settings: Homo sapiens, single dose 10 µM, negative = lethal, read-out: Percent growth inhibition
Procedure: as §1

PC-3 = experiment: NCI cytotoxicity screen, Prostate Cancer panel; format: cell-based, human; settings: Homo sapiens, single dose 10 µM, negative = lethal, read-out: Percent growth inhibition
Procedure: as §1

[1] = Experimental log P, shake-flask method; format: physicochemical; settings: n-octanol/phosphate buffer pH 7.4, read-out: Exp. Log P
Procedure: Partition coefficients or experimental log P values of all synthesized compounds (9–23, 30 and 31) were calculated using the shake-flask method. Log P values were determined using n-octanol and phosphate buffer (pH = 7.4) at 10:1 ratio of volumes. Stock solutions (10^−3 M) of compounds were prepared in DMSO. Glass vials were used to make final solutions i.e. stock solution (250 µL) and phosphate buffer (125 µL). To record the absorbance, wavelength was selected based on λmax of the respective compound. Initial absorbance (Ai) for every compound was noted consuming the stock solution in the buffer phase. Now added n-octanol to every vial and shaken well using a mechanical shaker for 50 minutes. To get separation of both phases, glass vials were centrifuged for 35 min. at 2500 rpm. Then, the layer of octanol was separated from glass vial. The final absorbance (Af) of each compound was recorded by using the buffer layer. The values of P for compounds were determined by the following equation (Eq. 8):8 P=Ai−Af/Af×Vw/Vo

Fc1ccc(-c2cn3ccnc3c(-c3ccc4c(c3)ncn4C3CCCCC3)n2)cc1 [Compound 13, 8-(1-cyclohexyl-1H-benzo[d]imidazol-5-yl)-6-(4-fluorophenyl)imidazo[1,2-a]pyrazine]
inhibition at 10 µM (CCRF-CEM): < 1% | inhibition at 10 µM (HL-60(TB)): 5.28% | inhibition at 10 µM (K-562): 13.2% | inhibition at 10 µM (MOLT-4): 11.4% | inhibition at 10 µM (RPMI-8226): 6.16% | inhibition at 10 µM (SR): 20.8% | inhibition at 10 µM (COLO 205): < 1% | inhibition at 10 µM (HCT-116): 6.58% | inhibition at 10 µM (HCT-15): 4.85% | inhibition at 10 µM (HT29): 8.33% | inhibition at 10 µM (HCC-2998): < 1% | inhibition at 10 µM (KM12): 7.3% | inhibition at 10 µM (SW-620): < 1% | inhibition at 10 µM (SF-268): 5.13% | inhibition at 10 µM (SF-295): < 1% | inhibition at 10 µM (SF-539): < 1% | inhibition at 10 µM (SNB-19): < 1% | inhibition at 10 µM (SNB-75): < 1% | inhibition at 10 µM (U251): 3.57% | inhibition at 10 µM (LOX IMVI): 0.76% | inhibition at 10 µM (M14): 0.73% | inhibition at 10 µM (UACC-62): 2.44% | inhibition at 10 µM (MALME-3M): < 1% | inhibition at 10 µM (MDA-MB-435): < 1% | inhibition at 10 µM (SK-MEL-28): < 1% | inhibition at 10 µM (SK-MEL-2): 6.3% | inhibition at 10 µM (SK-MEL-5): 2.9% | inhibition at 10 µM (UACC-257): < 1% | inhibition at 10 µM (IGROV1): 6.4% | inhibition at 10 µM (NCI/ADR-RES): 2.36% | inhibition at 10 µM (OVCAR-4): < 1% | inhibition at 10 µM (OVCAR-5): < 1% | inhibition at 10 µM (OVCAR-8): 3.09% | inhibition at 10 µM (SK-OV-3): < 1% | inhibition at 10 µM (OVCAR-3): < 1% | inhibition at 10 µM (786-0): 3.12% | inhibition at 10 µM (TK-10): < 1% | inhibition at 10 µM (CAKI-1): < 1% | inhibition at 10 µM (SN12C): < 1% | inhibition at 10 µM (DU-145): < 1% | inhibition at 10 µM (PC-3): 10.2% | logP [1]: 1.26

c1csc(-c2cn3ccnc3c(-c3ccc4c(c3)ncn4C3CCCCC3)n2)c1 [Compound 22, 8-(1-cyclohexyl-1H-benzo[d]imidazol-5-yl)-6-(thiophen-2-yl)imidazo[1,2-a]pyrazine]
inhibition at 10 µM (CCRF-CEM): < 1% | inhibition at 10 µM (HL-60(TB)): 0.87% | inhibition at 10 µM (K-562): < 1% | inhibition at 10 µM (MOLT-4): 12.4% | inhibition at 10 µM (RPMI-8226): < 1% | inhibition at 10 µM (SR): 15% | inhibition at 10 µM (COLO 205): < 1% | inhibition at 10 µM (HCT-116): < 1% | inhibition at 10 µM (HCT-15): 6.48% | inhibition at 10 µM (HT29): < 1% | inhibition at 10 µM (HCC-2998): < 1% | inhibition at 10 µM (KM12): 6.84% | inhibition at 10 µM (SW-620): < 1% | inhibition at 10 µM (SF-268): 2.5% | inhibition at 10 µM (SF-295): < 1% | inhibition at 10 µM (SF-539): < 1% | inhibition at 10 µM (SNB-19): < 1% | inhibition at 10 µM (SNB-75): < 1% | inhibition at 10 µM (U251): < 1% | inhibition at 10 µM (LOX IMVI): 1.01% | inhibition at 10 µM (M14): < 1% | inhibition at 10 µM (UACC-62): 0.23% | inhibition at 10 µM (MALME-3M): < 1% | inhibition at 10 µM (MDA-MB-435): < 1% | inhibition at 10 µM (SK-MEL-28): < 1% | inhibition at 10 µM (SK-MEL-2): 13.1% | inhibition at 10 µM (SK-MEL-5): 1.16% | inhibition at 10 µM (UACC-257): < 1% | inhibition at 10 µM (IGROV1): < 1% | inhibition at 10 µM (NCI/ADR-RES): 6.79% | inhibition at 10 µM (OVCAR-4): < 1% | inhibition at 10 µM (OVCAR-5): < 1% | inhibition at 10 µM (OVCAR-8): < 1% | inhibition at 10 µM (SK-OV-3): < 1% | inhibition at 10 µM (OVCAR-3): 0.91% | inhibition at 10 µM (786-0): 0.59% | inhibition at 10 µM (TK-10): < 1% | inhibition at 10 µM (CAKI-1): < 1% | inhibition at 10 µM (SN12C): < 1% | inhibition at 10 µM (DU-145): 3.63% | inhibition at 10 µM (PC-3): 7.16% | logP [1]: 1.37
